Reference: the NIST ThermoML archive (doi:10.1021/acs.jced.7b00201)

Assay: xn = mol fraction of the nth substance listed
Conditions: 100 kPa, Liquid; for mass density: Vibrating tube method; for viscosity: Falling or rolling sphere viscometry

CCCCC1CCCCC1 [butylcyclohexane] + CCCCCCCCCCCC
Conditions | mass density [kg/m3] | viscosity [mPa·s]
318.15 K, x2 = 0 | 780.52 | –
318.15 K, x2 = 0.1017 | 774.07 | –
318.15 K, x2 = 0.1996 | 768.22 | –
318.15 K, x2 = 0.2951 | 762.85 | –
318.15 K, x2 = 0.4221 | 756.14 | –
318.15 K, x2 = 0.5126 | 751.63 | –
318.15 K, x2 = 0.6256 | 746.29 | –
318.15 K, x2 = 0.7002 | 742.93 | –
318.15 K, x2 = 0.7989 | 738.69 | –
318.15 K, x2 = 0.9012 | 734.5 | –
323.15 K, x2 = 0 | 776.74 | 0.844
323.15 K, x2 = 0.1017 | 770.3 | 0.851
323.15 K, x2 = 0.1996 | 764.47 | 0.858
323.15 K, x2 = 0.2951 | 759.12 | 0.864
323.15 K, x2 = 0.4221 | 752.42 | 0.874
323.15 K, x2 = 0.5126 | 747.93 | 0.881
323.15 K, x2 = 0.6256 | 742.6 | 0.89
323.15 K, x2 = 0.7002 | 739.25 | 0.896
323.15 K, x2 = 0.7989 | 735.02 | 0.905
323.15 K, x2 = 0.9012 | 730.84 | 0.915
328.15 K, x2 = 0 | 772.93 | 0.794
328.15 K, x2 = 0.1017 | 766.52 | 0.8
328.15 K, x2 = 0.1996 | 760.71 | 0.806
328.15 K, x2 = 0.2951 | 755.37 | 0.812
328.15 K, x2 = 0.4221 | 748.7 | 0.821
328.15 K, x2 = 0.5126 | 744.22 | 0.827
328.15 K, x2 = 0.6256 | 738.9 | 0.834
328.15 K, x2 = 0.7002 | 735.56 | 0.84
328.15 K, x2 = 0.7989 | 731.33 | 0.848
328.15 K, x2 = 0.9012 | 727.16 | 0.858
333.15 K, x2 = 0 | 769.13 | 0.749
333.15 K, x2 = 0.1017 | 762.73 | 0.754
333.15 K, x2 = 0.1996 | 756.94 | 0.759
333.15 K, x2 = 0.2951 | 751.62 | 0.763
333.15 K, x2 = 0.4221 | 744.96 | 0.771
333.15 K, x2 = 0.5126 | 740.49 | 0.775
333.15 K, x2 = 0.6256 | 735.19 | 0.781
333.15 K, x2 = 0.7002 | 731.86 | 0.787
333.15 K, x2 = 0.7989 | 727.64 | 0.794
333.15 K, x2 = 0.9012 | 723.48 | 0.803
338.15 K, x2 = 0 | 765.3 | 0.708
338.15 K, x2 = 0.1017 | 758.93 | 0.712
338.15 K, x2 = 0.1996 | 753.16 | 0.716
338.15 K, x2 = 0.2951 | 747.85 | 0.721
338.15 K, x2 = 0.4221 | 741.21 | 0.728
338.15 K, x2 = 0.5126 | 736.75 | 0.733
338.15 K, x2 = 0.6256 | 731.47 | 0.738
338.15 K, x2 = 0.7002 | 728.14 | 0.742
338.15 K, x2 = 0.7989 | 723.94 | 0.749
338.15 K, x2 = 0.9012 | 719.78 | 0.756
343.15 K, x2 = 0 | 761.47 | 0.67
343.15 K, x2 = 0.1017 | 755.12 | 0.674
343.15 K, x2 = 0.1996 | 749.37 | 0.678
343.15 K, x2 = 0.2951 | 744.07 | 0.682
343.15 K, x2 = 0.4221 | 737.45 | 0.687
343.15 K, x2 = 0.5126 | 733 | 0.691
343.15 K, x2 = 0.6256 | 727.73 | 0.696
343.15 K, x2 = 0.7002 | 724.41 | 0.701
343.15 K, x2 = 0.7989 | 720.22 | 0.708
343.15 K, x2 = 0.9012 | 716.08 | 0.715
